Patent US20170073337A1, “DIHYDROTHIAZINE AND DIHYDROOXAZINE DERIVATIVES HAVING BACE1 INHIBITORY ACTIVITY” (Shionogi & Co., Ltd., priority 2014, published 2017)
In brackets after ≈: the same amount, converted by molar mass. Read-outs that look alike come from different tables or passages of the source.

Columns and labels:
Solubility test = format: physicochemical
How it was run: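 Dissolved concentration determined by LC/MS or SPE/MS (absolute calibration) in diluted filtrates, after 2 μL of 10 mmol/L DMSO stock was added to 198 μL JP 1st or JP 2nd fluid and equilibrated either 1 h with shaking at room temperature or 16 h standing at 25 °C.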

CYP3A4 = target: T1, CYP3A4 (Homo sapiens, UniProt P08684); test: CYP inhibition test (CYP3A4); format: in vitro ADME; details: pooled human liver microsomes; terfenadine hydroxylation
T1 construct: The commercially available pooled human liver microsomes are used as an enzyme resource; from tissue; host or cells: pooled human liver microsomes
How it was run: (§1)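 Pooled human liver microsomes (0.2 mg protein/mL) with compound at 1, 5, 10 and 20 μmol/L and NADPH, at 37 °C. Marker substrates: dextromethorphan 5 μmol/L (2D6), terfenadine 1 μmol/L (3A4), S-mephenytoin 50 μmol/L (2C19), tolbutamide 100 μmol/L (2C9). Metabolites were measured by LC/MS/MS, and IC50 was derived by logistic fit of remaining activity against the DMSO control.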

CYP2C19 = target: T2, CYP2C19 (Homo sapiens, UniProt P33261); test: CYP inhibition test (CYP2C19); format: in vitro ADME; details: pooled human liver microsomes; mephenytoin 4′-hydroxylation
T2 construct: The commercially available pooled human liver microsomes are used as an enzyme resource; from tissue; host or cells: pooled human liver microsomes
How it was run: as §1

CYP1A2 = target: T3, CYP1A2 (Homo sapiens, UniProt P05177); test: CYP inhibition test (CYP1A2); format: in vitro ADME; details: pooled human liver microsomes; 7-ethoxyresorufin O-deethylation
T3 construct: The commercially available pooled human liver microsomes are used as an enzyme resource; from tissue; host or cells: pooled human liver microsomes
T3 sequence (P05177 1-516): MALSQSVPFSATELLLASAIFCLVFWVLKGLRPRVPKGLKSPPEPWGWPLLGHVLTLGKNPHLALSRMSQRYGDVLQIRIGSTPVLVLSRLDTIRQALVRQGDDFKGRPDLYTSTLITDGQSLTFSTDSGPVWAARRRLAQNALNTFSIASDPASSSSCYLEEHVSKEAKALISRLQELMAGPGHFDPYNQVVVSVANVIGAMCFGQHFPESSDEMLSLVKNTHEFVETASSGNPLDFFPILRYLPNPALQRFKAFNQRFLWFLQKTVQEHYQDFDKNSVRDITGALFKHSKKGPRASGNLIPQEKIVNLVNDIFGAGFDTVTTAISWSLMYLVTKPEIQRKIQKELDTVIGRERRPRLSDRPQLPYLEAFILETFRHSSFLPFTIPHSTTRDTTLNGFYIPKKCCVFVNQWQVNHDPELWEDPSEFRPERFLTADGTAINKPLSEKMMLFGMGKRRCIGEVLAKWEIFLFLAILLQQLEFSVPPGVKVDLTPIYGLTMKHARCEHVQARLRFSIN
How it was run: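 Inhibition of CYP1A2 was measured in commercially available pooled human liver microsomes (0.2 mg protein/mL) using 7-ethoxyresorufin O-deethylation with 0.5 μmol/L ethoxyresorufin. Test compound at 1, 5, 10, 20 μmol/L in […] Hepes buffer was incubated at 37° C. after NADPH addition; methanol/acetonitrile=1/1 (v/v) stopped the reaction, and resorufin was read fluorescently.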

Metabolic stability test = format: in vitro ADME; details: human liver microsomes, 37° C., 30 minutes, NADPH
How it was run: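 Parent compound was measured by LC/MS/MS or SPE/MS after a methanol/acetonitrile quench and reported as % remaining, with the 0 min sample set to 100%. Incubations ran 30 min at 37 °C in pH 7.4 Tris buffer containing pooled human liver microsomes at 0.5 mg protein/mL and 1 mmol/L NADPH.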

[1] = target: T4, human ether-a-go-go related gene (hERG) channel (Homo sapiens, UniProt Q12809); test: hERG test; format: cell-based; details: % inhibition of IKr tail peak current at 3 uM; CHO cells expressing hERG
T4 construct: expressed in transfected cells; host or cells: CHO cells
How it was run: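 Automated whole-cell patch clamp was run on CHO cells carrying human hERG, held at −80 mV. Current was recorded during the −50 mV repolarization (2 s) that followed a 2 s +20 mV step, after a −50 mV leak pulse.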

[2] = JP 1st fluid, pH 1.2, simulated gastric fluid, kinetic from dmso stock, read-out: JP1
[3] = solubility in JP 2nd fluid B, 1% DMSO, *2: shaken for 1 hour at room temperature, read-out: JP2_μM
[4] = JP 1st fluid, 25 °C, pH 1.2, simulated gastric fluid, kinetic from dmso stock, read-out: JP1
[5] = JP 2nd fluid A, 25 °C, pH 6.8, aqueous buffer, kinetic from dmso stock, read-out: JP2_μM
[6] = JP 2nd fluid A, pH 6.8, aqueous buffer, kinetic from dmso stock, read-out: JP2_μM

T4 sequence (Q12809 whole entry): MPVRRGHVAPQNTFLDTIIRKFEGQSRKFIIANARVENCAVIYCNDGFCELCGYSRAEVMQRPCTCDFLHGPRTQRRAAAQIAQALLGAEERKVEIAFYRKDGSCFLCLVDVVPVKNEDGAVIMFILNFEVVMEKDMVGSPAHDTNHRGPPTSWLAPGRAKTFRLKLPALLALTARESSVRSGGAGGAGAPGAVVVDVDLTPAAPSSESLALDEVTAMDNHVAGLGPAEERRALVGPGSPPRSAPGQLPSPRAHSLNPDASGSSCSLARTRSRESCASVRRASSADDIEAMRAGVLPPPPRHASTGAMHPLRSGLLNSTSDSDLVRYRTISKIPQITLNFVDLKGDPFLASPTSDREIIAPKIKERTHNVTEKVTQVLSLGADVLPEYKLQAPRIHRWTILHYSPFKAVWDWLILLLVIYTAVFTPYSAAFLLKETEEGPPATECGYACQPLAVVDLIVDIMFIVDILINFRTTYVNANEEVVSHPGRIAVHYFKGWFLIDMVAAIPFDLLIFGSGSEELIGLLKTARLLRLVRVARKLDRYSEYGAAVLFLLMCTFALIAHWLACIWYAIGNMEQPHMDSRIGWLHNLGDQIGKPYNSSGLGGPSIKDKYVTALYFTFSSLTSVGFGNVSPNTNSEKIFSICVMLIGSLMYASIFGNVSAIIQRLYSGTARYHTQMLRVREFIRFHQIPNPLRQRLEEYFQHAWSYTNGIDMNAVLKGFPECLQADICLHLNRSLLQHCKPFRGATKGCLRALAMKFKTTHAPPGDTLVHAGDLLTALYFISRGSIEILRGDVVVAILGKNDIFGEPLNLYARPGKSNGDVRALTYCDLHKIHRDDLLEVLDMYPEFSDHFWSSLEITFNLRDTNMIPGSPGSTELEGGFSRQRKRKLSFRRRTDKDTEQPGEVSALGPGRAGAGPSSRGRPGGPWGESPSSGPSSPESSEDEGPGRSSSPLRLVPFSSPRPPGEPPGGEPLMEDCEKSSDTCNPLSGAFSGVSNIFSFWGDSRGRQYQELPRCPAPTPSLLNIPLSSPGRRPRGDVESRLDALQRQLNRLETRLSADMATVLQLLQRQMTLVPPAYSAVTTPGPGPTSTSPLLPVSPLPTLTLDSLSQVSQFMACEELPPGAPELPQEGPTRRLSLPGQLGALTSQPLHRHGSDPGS
T1 sequence (P08684 whole entry): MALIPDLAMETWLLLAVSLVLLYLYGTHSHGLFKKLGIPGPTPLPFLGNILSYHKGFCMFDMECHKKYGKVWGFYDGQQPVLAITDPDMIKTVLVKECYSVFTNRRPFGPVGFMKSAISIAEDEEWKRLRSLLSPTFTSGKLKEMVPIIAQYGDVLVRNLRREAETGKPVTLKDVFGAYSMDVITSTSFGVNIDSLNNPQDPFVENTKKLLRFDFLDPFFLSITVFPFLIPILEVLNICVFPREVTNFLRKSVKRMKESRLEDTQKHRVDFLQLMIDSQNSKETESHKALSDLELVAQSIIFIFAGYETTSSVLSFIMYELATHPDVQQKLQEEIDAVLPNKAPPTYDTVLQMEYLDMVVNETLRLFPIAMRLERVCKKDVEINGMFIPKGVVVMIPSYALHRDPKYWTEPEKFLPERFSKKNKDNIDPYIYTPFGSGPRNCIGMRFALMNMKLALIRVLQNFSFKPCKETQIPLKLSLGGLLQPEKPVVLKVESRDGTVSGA
T2 sequence (P33261 whole entry): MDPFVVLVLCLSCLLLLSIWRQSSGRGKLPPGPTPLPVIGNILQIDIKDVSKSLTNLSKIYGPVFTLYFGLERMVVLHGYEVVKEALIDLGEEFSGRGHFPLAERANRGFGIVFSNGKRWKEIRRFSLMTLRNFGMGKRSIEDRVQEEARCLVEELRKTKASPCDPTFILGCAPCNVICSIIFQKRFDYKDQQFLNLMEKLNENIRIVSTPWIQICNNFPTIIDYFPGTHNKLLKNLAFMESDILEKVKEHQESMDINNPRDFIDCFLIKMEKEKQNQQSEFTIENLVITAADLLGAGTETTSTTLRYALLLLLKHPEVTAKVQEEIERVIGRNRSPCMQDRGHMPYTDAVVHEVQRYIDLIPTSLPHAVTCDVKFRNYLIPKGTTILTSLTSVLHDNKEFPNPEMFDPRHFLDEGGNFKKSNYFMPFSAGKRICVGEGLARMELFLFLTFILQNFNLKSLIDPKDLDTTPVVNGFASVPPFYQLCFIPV

SMILES	solubility kinetic at 1 h (Solubility test; [2]) [µM]	solubility kinetic at 16 h (Solubility test; [3]) [µM]	IC50 (CYP3A4) [µM]	IC50 (CYP2C19) [µM]	IC50 (CYP1A2) [µM]	remaining % (Metabolic stability test) [%]	solubility kinetic at 16 h (Solubility test; [4]) [µM]	solubility kinetic at 16 h (Solubility test; [5]) [µM]	solubility kinetic at 1 h (Solubility test; [6]) [µM]	solubility kinetic at 1 h (Solubility test; JP 2nd fluid B, pH 6.8, aqueous buffer, kinetic from dmso stock, read-out: JP2_μM) [µM]	hERG_3 uM_% [1] [%]
CO[C@H]1[C@@H](CF)OC(N)=N[C@]1(C)c1cc(NC(=O)c2cnc(OCF)cn2)ccc1F [Compound I-24]			≥ 20	≥ 20	≥ 20	95.5	38.8 (≈ 17 µg/mL)	> 50			6.7
C[C@]1(c2cc(NC(=O)c3cnc(OCF)cn3)ccc2F)N=C(N)O[C@H](CF)[C@@H]1OCC(F)(F)F [Compound I-12]			≥ 20	≥ 20	≥ 20	97.8	36.1 (≈ 18.3 µg/mL)	> 50			35.5
CO[C@H]1[C@@H](CF)OC(N)=N[C@]1(C)c1cc(NC(=O)c2cnc(OCF)cn2)ccc1Cl [Compound I-19]			≥ 20	≥ 20	≥ 20	69.9	37.1 (≈ 16.9 µg/mL)	> 50			18.8
COc1cnc(C(=O)Nc2ccc(F)c([C@@]3(C)N=C(N)O[C@H](C(C)(F)F)[C@@H]3F)c2)cn1 [Compound I-42]	> 50		≥ 20	≥ 20	≥ 20	68.2			> 50		15.5
C[C@H]1[C@@H](C(F)F)OC(N)=N[C@]1(C)c1cc(NC(=O)c2cnc(OCF)cn2)ccc1F [Compound I-33]	39.4 (≈ 17.4 µg/mL)		≥ 20	≥ 20	≥ 20	87.5			> 50		21.9
C[C@H]1SC(N)=N[C@](C)(c2cc(NC(=O)c3ncc(OCC(F)(F)F)cn3)ccc2F)[C@H]1F [Compound I-53]	> 50	>50	≥ 20	≥ 20	≥ 20	109					47.9
CO[C@H]1[C@@H](CF)OC(N)=N[C@]1(C)c1cc(NC(=O)c2ccc(C#N)cn2)ccc1Cl [Compound I-18]			≥ 20	≥ 20	≥ 20	71.4	36 (≈ 15.5 µg/mL)	> 50			44.8
COc1cnc(C(=O)Nc2ccc(F)c([C@@]3(C)N=C(N)O[C@H](C(F)F)[C@@H]3C)c2)cn1 [Compound I-86]	> 50		≥ 20	≥ 20	≥ 20	67.5			> 50		23.8
C[C@H]1SC(N)=N[C@](C)(c2nc(NC(=O)c3cnc(OCF)cn3)ccc2F)[C@H]1F [Compound I-3]			≥ 20	≥ 20	≥ 20	81.4	> 50	> 50			45.5
COc1cnc(C(=O)Nc2ccc(F)c([C@@]3(C)N=C(N)O[C@H]([C@@H](C)F)[C@@H]3F)c2)cn1 [Compound I-71]	> 50		≥ 20	≥ 20	≥ 20	63			> 50		17

More lines, main results first:

solubility kinetic at 1 h (Solubility test; [2]) [µM]	solubility kinetic at 16 h (Solubility test; [3]) [µM]	IC50 (CYP3A4) [µM]	IC50 (CYP2C19) [µM]	IC50 (CYP1A2) [µM]	remaining % (Metabolic stability test) [%]	solubility kinetic at 16 h (Solubility test; [4]) [µM]	solubility kinetic at 16 h (Solubility test; [5]) [µM]	solubility kinetic at 1 h (Solubility test; [6]) [µM]	solubility kinetic at 1 h (Solubility test; JP 2nd fluid B, pH 6.8, aqueous buffer, kinetic from dmso stock, read-out: JP2_μM) [µM]	SMILES	hERG_3 uM_% [1] [%]
> 50	>50	≥ 10	≥ 20	≥ 20	74.3					CC[C@H]1SC(N)=N[C@](C)(c2cc(NC(=O)c3ccc(F)cn3)ccc2F)[C@H]1F [Compound I-70]	58.6
> 50		≥ 20	≥ 20	≥ 20	106			> 50		CC(F)(F)[C@H]1OC(N)=N[C@](C)(c2cc(NC(=O)c3ccc(C#N)cn3)ccc2F)[C@H]1F [Compound I-40]	48.4
> 50	>50	≥ 20	≥ 20	≥ 20	83.5					CO[C@H]1[C@@H](C)SC(N)=N[C@]1(C)c1cc(NC(=O)c2ccc(C#N)cn2)ccc1F [Compound I-88]	45.6
> 50	>50	≥ 20	≥ 20	≥ 20	92.1					COc1ccc(C(=O)Nc2ccc(F)c([C@@]3(C)N=C(N)S[C@H](C)[C@@H]3F)c2)nn1 [Compound I-108]	39.5
		≥ 20	≥ 20	≥ 10	98.2	35 (≈ 15.2 µg/mL)	> 50			C[C@H]1[C@H](C(F)(F)F)OC(N)=N[C@]1(C)c1cc(NC(=O)c2ccc(C#N)cn2)ccc1F [Compound I-29]	45.4
		≥ 20	≥ 20	≥ 20	104	42.7 (≈ 20.3 µg/mL)	> 50			C[C@]1(c2cc(NC(=O)c3ccc(F)cn3)ccc2F)N=C(N)O[C@H](CF)[C@@H]1OCC(F)(F)F [Compound I-11]	42.5
> 50	>50	≥ 20	≥ 20	≥ 20	86.7					CO[C@H]1[C@@H](C)SC(N)=N[C@]1(C)c1cc(NC(=O)c2ccc(F)cn2)ccc1F [Compound I-89]	42.7
		≥ 20	≥ 20	≥ 20	101	39.6 (≈ 16.5 µg/mL)	> 50			C[C@H](F)[C@H]1OC(N)=N[C@](C)(c2cc(NC(=O)c3ccc(C#N)cn3)ccc2F)[C@H]1F [Compound I-13]	52.8
		≥ 20	≥ 20	≥ 20	106	> 50	> 50			C[C@H]1SC(N)=N[C@](C)(c2cc(NC(=O)c3ccc(F)cn3)ccc2F)[C@H]1F [Compound I-116]	45.5
> 50		≥ 20	≥ 20	≥ 20	60.3				13.9 (≈ 5.78 µg/mL)	Cc1cc(C#N)cnc1C(=O)Nc1ccc(F)c([C@@]2(C)N=C(N)S[C@H](C)[C@@H]2F)c1 [Compound I-52]	55.7
		≥ 20	≥ 20	≥ 20	75.4	38.9 (≈ 16.5 µg/mL)	> 50			CO[C@H]1[C@@H](CF)OC(N)=N[C@]1(C)c1cc(NC(=O)c2ccc(F)cn2)ccc1Cl [Compound I-20]	30.4
		≥ 20	≥ 20	≥ 20	89.1	46.7 (≈ 19.1 µg/mL)	> 50			CO[C@H]1[C@@H](CF)OC(N)=N[C@]1(C)c1cc(NC(=O)c2ccc(F)cn2)ccc1F [Compound I-25]	41.9
